The source made the active and inactive calls. The rule behind the calls is not given here.
Tests used:
Mus musculus [1] = assay: Potency index, ratio of phenobarbital ED50 to compound ED50 for protection against maximal electroshock-induced seizures in ip dosed mouse; type: functional
Mus musculus [2] = assay: Anticonvulsant activity against pentylenetetrazole-induced seizures in ip dosed mouse incubated for 30 mins prior to pentylenetetrazole challenge measured after 30 mins; type: functional
Mus musculus [3] = assay: Anticonvulsant activity against maximal electroshock-induced seizures in ip dosed mouse assessed as protection against hind limb tonic extension incubated for 30 mins prior to 60 Hz maximal electroshock challenge measured for 30 s; type: functional; settings: Hindlimb
[4] = Neurotoxicity in ip dosed mouse assessed as minimal motor impairment measured for 1 min by rotarod test; type: toxicity, organism-based; settings: in vivo
[5] = Protective index, ratio of TD50 for ip dosed mouse neurotoxicity to ED50 for protection against PTZ-induced seizure in ip dosed mouse; type: toxicity, organism-based; settings: in vivo, read-out: Ratio TD50/ED50
[6] = Protective index, ratio of TD50 for ip dosed mouse neurotoxicity to ED50 for protection against 60 Hz electroshock-induced seizure in ip dosed mouse; type: toxicity, organism-based; settings: in vivo, read-out: Ratio TD50/ED50
MCF7 = assay: Cytotoxicity against human MCF7 cells after 48 hrs by MTT assay; type: cell-based; settings: MCF7, 48 h
T47D = assay: Cytotoxicity against human T47D cells after 48 hrs by MTT assay; type: cell-based
MDA-MB-231 = assay: Cytotoxicity against human MDA-MB-231 cells after 48 hrs by MTT assay; type: cell-based; settings: MDA-MB-231, 48 h
Mus musculus [7] = assay: Anticonvulsant activity against pentylenetetrazole-induced seizures in mouse at 1 to 10 mg/kg, ip incubated for 30 mins prior to PTZ challenge measured after 30 mins in presence of benzodiazepine receptor antagonist flumazenil; type: functional, organism-based

SMILES	Ratio ED50 (Mus musculus [1])	ED50 (Mus musculus [2]) [mg/kg]	ED50 (Mus musculus [3]) [mg/kg]	TD50 at 1 min [4] [mg/kg]	selectivity ratio [5]	selectivity ratio [6]	IC50 (MCF7) [µM]	IC50 (T47D) [µM]	IC50 (MDA-MB-231) [µM]	Activity (Mus musculus [7])
Cc1ccc(-c2noc(Cn3c4ccccc4c(=O)c4ccccc43)n2)cc1	7	6.37	2.52	538	84.5	214	> 50	> 50	> 50	–
O=c1c2ccccc2n(Cc2nc(-c3ccc(Cl)cc3)no2)c2ccccc12	–	5.78	3.57	528	91.3	148	> 50	> 50	> 50	–
COc1cc([C@@H]2c3cc4c(cc3[C@@H](O[C@@H]3O[C@@H]5CO[C@@H](C)O[C@H]5[C@H](O)[C@H]3O)[C@H]3COC(=O)[C@H]23)OCO4)cc(OC)c1O [ETOPOSIDE]	–	–	–	–	–	–	–	11.8	15.7	–
Cc1ccc(-c2noc(Cn3c4ccccc4c(=O)c4cc(C)ccc43)n2)cc1	7	> 50	2.77	542	< 10.8	196	> 50	> 50	> 50	–
CCC1(c2ccccc2)C(=O)NC(=O)NC1=O [PHENOBARBITAL]	–	12.4	20.6	68.9	5.5	3.3	–	–	–	–
O=c1c2ccccc2n(Cc2nc(-c3ccc(Cl)cc3)no2)c2ccc(Br)cc12	7	7.57	2.87	512	67.6	178	> 50	> 50	> 50	–
O=c1c2ccccc2n(Cc2nc(-c3ccc(Cl)cc3)no2)c2ccc(Cl)cc12	7	4.16	2.64	454	109	172	> 50	> 50	> 50	–
COc1ccc(-c2noc(Cn3c4ccccc4c(=O)c4cc(Br)ccc43)n2)cc1	–	6.21	8.71	471	75.8	54.1	> 50	> 50	> 50	–
COc1ccc(-c2noc(Cn3c4ccccc4c(=O)c4cc(OC)ccc43)n2)cc1	7	2.12	2.42	462	217	191	> 50	> 50	> 50	–
CCc1ccc2c(c1)c(=O)c1ccccc1n2Cc1nc(-c2ccc(C)cc2)no1	–	18.9	8.31	496	26.1	59.6	> 50	> 50	> 50	–
COc1ccc2c(c1)c(=O)c1ccccc1n2Cc1nc(-c2ccc(C)cc2)no1	–	6.32	3.25	522	82.4	160	> 50	> 50	> 50	–
COc1ccc2c(c1)c(=O)c1ccccc1n2Cc1nc(-c2ccc(Cl)cc2)no1	–	5.22	3.68	553	106	150	> 50	> 50	> 50	–
Cc1ccc(-c2noc(Cn3c4ccccc4c(=O)c4cc(Cl)ccc43)n2)cc1	7	6.25	2.24	483	77.3	216	> 50	> 50	> 50	–
Cc1ccc2c(c1)c(=O)c1ccccc1n2Cc1nc(-c2ccc(Cl)cc2)no1	–	15.2	6.53	475	31.3	72.7	> 50	> 50	> 50	–
COc1ccc(-c2noc(Cn3c4ccccc4c(=O)c4cc(Cl)ccc43)n2)cc1	–	2.08	3.71	438	211	118	> 50	> 50	> 50	inactive
CN1C(=O)CN=C(c2ccccc2)c2cc(Cl)ccc21 [DIAZEPAM]	–	0.68	0.98	–	–	–	–	–	–	–
Cc1ccc(-c2noc(Cn3c4ccccc4c(=O)c4cc(Br)ccc43)n2)cc1	–	> 50	5.12	594	< 11.9	116	> 50	> 50	> 50	–
